Laboratory results as given in PMC3865070 (Neuropharmacology, 2013).
Read-outs that look alike come from different tables or passages of the source. Each block holds one compound with its values, some of them ahead of it.

Columns and labels:
Type in all cases: cell-based
GluN1(F484A/T518L)/N3A = GluN1(F484A/T518L)/N3A (Rattus norvegicus, UniProt Q9R1M7); test: Two-electrode voltage-clamp recordings, Xenopus oocytes expressing GluN1; settings: for voltage dependence of inhibition: current-voltage relationship, inhibition at −60 mV and +30 mV; for Hill coefficient (nH): inhibition
GluA1 = GluA1 (Rattus norvegicus, UniProt P19490); test: Two-electrode voltage-clamp recordings, Xenopus oocytes expressing GluA1
GluN1/N2D [1] = target: GluN1/N2D (Rattus norvegicus, UniProt P35439); test: Two-electrode voltage-clamp recordings, Xenopus oocytes expressing GluN1/N2D; settings: co-applied with 100 μM glutamate and 0.5 μM glycine
GluN1/N2B [2] = target: GluN1/N2B (Rattus norvegicus, UniProt P35439); test: Two-electrode voltage-clamp recordings, Xenopus oocytes expressing GluN1/N2B; settings: co-applied with 100 μM glutamate and 0.5 μM glycine
[3] = target: wild-type GluN1/N3B receptors (Rattus norvegicus, UniProt P35439+Q8VHN2)
GluN1/N2C [4] = target: GluN1/N2C (Rattus norvegicus, UniProt P35439); test: Two-electrode voltage-clamp recordings, Xenopus oocytes expressing GluN1/N2C; settings: co-applied with 100 μM glutamate and 0.5 μM glycine
GluN1(T518L)/N3A = GluN1(T518L)/N3A (Rattus norvegicus, UniProt P35439+Q9R1M7, T518L); test: Two-electrode voltage-clamp recordings, Xenopus oocytes expressing GluN1; settings: for Hill coefficient (nH): inhibition
GluK2 = GluK2 (Rattus norvegicus, UniProt P42260); test: Two-electrode voltage-clamp recordings, Xenopus oocytes expressing GluK2
GluN1(F484A/T518L)/N3B = GluN1(F484A/T518L)/N3B (Rattus norvegicus, UniProt Q8VHN2); test: Two-electrode voltage-clamp recordings, Xenopus oocytes expressing GluN1; settings: for Hill coefficient (nH): inhibition
GluN1/N2A [5] = target: GluN1/N2A (Rattus norvegicus, UniProt P35439); test: Two-electrode voltage-clamp recordings, Xenopus oocytes expressing GluN1/N2A; settings: co-applied with 100 μM glutamate and 0.5 μM glycine
GluN1(F484A)/N3A = GluN1(F484A)/N3A (Rattus norvegicus, UniProt P35439+Q9R1M7, F484A); test: Two-electrode voltage-clamp recordings, Xenopus oocytes expressing GluN1; settings: for Hill coefficient (nH): inhibition
GluN1/N2D [6] = target: GluN1/N2D (Rattus norvegicus, UniProt P35439+Q62645); test: Two-electrode voltage-clamp recordings, Xenopus oocytes expressing GluN1/N2D
GluN1/N2B [7] = target: GluN1/N2B (Rattus norvegicus, UniProt P35439+Q00960); test: Two-electrode voltage-clamp recordings, Xenopus oocytes expressing GluN1/N2B
GluN1/N2C [8] = target: GluN1/N2C (Rattus norvegicus, UniProt P35439+Q00961); test: Two-electrode voltage-clamp recordings, Xenopus oocytes expressing GluN1/N2C
GluN1/N2A [9] = target: GluN1/N2A (Rattus norvegicus, UniProt P35439+Q00959); test: Two-electrode voltage-clamp recordings, Xenopus oocytes expressing GluN1/N2A
[10] = co-applied with 100 μM glycine, N.E., no significant effect at 300 μM
[11] = IC50, co-applied with 100 μM glycine, N.E., no significant effect at 300 μM
[12] = IC50, co-applied with 100 μM glutamate and 0.5 μM glycine
[13] = read-out: inhibition of current responses to 10 μM glycine

Sequence of GluN1(F484A)/N3A (Q9R1M7 24-1115 isoform Q9R1M7-2 limits assumed, stated change not applied, other chains not shown): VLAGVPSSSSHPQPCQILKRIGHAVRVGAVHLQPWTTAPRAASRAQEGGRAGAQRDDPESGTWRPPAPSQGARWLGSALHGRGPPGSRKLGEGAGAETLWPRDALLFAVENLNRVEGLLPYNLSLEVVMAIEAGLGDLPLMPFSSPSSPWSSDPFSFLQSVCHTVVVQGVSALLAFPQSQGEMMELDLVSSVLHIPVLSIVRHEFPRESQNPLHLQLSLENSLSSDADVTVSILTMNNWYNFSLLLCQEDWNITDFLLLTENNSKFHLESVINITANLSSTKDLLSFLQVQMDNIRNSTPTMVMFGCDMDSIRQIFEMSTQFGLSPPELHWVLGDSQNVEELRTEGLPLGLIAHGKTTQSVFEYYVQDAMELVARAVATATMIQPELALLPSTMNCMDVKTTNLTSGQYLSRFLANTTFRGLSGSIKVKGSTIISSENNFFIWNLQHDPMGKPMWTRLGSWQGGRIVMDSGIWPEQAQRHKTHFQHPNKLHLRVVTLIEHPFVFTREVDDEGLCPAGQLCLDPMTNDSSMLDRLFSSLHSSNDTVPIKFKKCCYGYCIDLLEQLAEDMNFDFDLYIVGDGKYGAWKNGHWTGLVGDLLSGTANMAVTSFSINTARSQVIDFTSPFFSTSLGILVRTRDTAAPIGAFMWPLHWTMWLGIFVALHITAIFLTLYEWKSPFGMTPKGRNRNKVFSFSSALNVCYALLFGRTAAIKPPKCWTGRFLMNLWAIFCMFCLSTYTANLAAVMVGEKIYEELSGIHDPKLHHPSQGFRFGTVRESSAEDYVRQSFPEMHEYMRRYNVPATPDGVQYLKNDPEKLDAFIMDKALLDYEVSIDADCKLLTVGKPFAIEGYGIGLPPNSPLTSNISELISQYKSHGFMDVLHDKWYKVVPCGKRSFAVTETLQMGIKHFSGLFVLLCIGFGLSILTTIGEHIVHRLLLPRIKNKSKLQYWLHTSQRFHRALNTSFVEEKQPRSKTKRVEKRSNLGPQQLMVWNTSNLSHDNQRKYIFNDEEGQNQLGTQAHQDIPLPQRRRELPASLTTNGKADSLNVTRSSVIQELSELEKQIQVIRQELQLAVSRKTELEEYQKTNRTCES
Sequence of GluN1(F484A/T518L)/N3A (Q9R1M7 24-1115 isoform Q9R1M7-2, other chains not shown): as the sequence (Q9R1M7 24-1115 isoform Q9R1M7-2 limits assumed, stated change not applied, other chains not shown) above
Sequence of GluN1(T518L)/N3A (Q9R1M7 24-1115 isoform Q9R1M7-2 limits assumed, stated change not applied, other chains not shown): as above
Sequence of wild-type GluN1/N3B receptors (Q8VHN2 25-1002, other chains not shown): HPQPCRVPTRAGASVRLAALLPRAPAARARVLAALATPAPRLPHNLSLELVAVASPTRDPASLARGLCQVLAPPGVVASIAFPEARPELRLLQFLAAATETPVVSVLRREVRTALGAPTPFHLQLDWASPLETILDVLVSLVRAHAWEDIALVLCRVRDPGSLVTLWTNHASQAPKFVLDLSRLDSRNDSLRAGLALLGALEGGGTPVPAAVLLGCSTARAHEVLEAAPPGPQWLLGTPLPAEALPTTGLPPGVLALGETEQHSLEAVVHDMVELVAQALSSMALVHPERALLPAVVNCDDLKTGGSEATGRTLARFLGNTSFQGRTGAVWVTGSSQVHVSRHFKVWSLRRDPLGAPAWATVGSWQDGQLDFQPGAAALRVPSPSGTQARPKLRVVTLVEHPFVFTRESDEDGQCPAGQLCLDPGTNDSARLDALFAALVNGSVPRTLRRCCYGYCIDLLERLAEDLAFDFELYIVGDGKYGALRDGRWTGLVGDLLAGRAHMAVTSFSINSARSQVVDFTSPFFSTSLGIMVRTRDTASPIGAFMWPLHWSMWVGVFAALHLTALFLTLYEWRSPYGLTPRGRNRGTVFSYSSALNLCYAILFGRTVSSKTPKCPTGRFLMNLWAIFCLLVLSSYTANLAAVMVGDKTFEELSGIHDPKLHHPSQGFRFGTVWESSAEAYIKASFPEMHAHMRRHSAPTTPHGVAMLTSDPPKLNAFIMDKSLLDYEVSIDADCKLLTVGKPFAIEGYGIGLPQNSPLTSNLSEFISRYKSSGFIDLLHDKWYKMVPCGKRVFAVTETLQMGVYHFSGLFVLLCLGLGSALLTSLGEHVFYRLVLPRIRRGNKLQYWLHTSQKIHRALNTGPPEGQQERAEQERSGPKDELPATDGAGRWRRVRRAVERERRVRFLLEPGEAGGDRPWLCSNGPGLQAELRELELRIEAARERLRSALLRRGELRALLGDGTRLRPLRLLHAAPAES
Sequence of GluN1(F484A/T518L)/N3B (Q8VHN2 25-1002, stated change not applied, other chains not shown): as the sequence (Q8VHN2 25-1002, other chains not shown) above
Sequence of GluK2 (P42260 32-908): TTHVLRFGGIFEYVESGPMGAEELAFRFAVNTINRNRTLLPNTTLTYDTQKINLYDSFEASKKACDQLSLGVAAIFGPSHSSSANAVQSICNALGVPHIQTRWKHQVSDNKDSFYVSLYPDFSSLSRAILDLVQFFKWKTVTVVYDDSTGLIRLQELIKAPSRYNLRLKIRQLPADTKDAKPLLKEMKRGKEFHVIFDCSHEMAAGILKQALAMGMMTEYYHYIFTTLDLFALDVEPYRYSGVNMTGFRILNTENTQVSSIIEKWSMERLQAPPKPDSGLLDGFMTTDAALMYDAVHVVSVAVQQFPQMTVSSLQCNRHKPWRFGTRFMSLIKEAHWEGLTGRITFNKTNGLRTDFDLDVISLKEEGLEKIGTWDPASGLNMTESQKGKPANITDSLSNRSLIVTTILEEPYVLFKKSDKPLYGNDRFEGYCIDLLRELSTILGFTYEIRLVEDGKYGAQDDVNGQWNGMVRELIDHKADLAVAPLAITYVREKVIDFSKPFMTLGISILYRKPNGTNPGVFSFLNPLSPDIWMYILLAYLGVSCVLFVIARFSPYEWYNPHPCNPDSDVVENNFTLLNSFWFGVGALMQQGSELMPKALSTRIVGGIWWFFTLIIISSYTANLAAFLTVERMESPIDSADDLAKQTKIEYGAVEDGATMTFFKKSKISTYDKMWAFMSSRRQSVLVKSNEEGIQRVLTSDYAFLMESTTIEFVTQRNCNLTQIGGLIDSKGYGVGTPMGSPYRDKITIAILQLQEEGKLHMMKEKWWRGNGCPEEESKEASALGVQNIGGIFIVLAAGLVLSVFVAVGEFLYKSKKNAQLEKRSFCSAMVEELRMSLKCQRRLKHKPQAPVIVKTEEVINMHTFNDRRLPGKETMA
Sequence of GluA1 (P19490 19-907): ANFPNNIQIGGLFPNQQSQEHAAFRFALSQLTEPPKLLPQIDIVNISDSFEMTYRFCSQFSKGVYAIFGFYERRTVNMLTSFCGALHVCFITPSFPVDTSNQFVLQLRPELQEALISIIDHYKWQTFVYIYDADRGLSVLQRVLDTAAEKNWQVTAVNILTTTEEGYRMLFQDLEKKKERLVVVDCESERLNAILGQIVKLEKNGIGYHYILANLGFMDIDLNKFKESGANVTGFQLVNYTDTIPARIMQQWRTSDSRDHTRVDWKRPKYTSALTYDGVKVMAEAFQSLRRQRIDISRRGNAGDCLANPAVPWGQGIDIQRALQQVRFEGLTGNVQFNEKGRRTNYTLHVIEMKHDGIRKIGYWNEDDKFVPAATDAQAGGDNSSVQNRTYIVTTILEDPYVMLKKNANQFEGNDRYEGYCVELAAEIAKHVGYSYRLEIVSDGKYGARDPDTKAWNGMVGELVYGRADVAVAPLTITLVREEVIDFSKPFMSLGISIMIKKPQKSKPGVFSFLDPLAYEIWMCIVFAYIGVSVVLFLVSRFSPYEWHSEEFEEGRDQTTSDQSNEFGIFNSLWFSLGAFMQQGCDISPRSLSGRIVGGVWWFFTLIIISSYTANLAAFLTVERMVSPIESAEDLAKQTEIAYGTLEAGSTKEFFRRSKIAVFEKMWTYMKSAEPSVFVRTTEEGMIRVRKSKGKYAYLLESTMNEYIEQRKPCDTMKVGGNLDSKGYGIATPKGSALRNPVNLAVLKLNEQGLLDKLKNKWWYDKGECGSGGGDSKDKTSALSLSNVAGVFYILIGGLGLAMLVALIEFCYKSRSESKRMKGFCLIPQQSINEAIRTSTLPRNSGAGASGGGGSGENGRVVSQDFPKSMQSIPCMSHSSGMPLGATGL

SMILES: O=C(O)c1cc(Nc2nc(-c3cccnc3)cs2)ccc1O [TK13]
pIC50 ± S.E.M. (GluN1(F484A/T518L)/N3A; co-applied with 100 μM glycine): 4.2 ± 0.06
IC50 (GluN1(F484A/T518L)/N3A; [10]): 67 µM
voltage dependence of inhibition (GluN1(F484A/T518L)/N3A): voltage-independent
Hill coefficient (nH) (GluN1(F484A/T518L)/N3A; co-applied with 100 μM glycine): −1.04
IC50 (GluA1; co-applied with 30 μM glutamate): > 300 µM
IC50 (GluN1/N2D [1]): > 300 µM
IC50 (GluN1/N2B [2]): > 300 µM
inhibition of current responses to 10 μM glycine ([3]; 100 μM compound): 55 ± 3.1%
IC50 (GluN1/N2C [4]): > 300 µM
IC50 (GluN1(T518L)/N3A; co-applied with 50 μM glycine): 100 µM
Maximal inhibition (GluN1(T518L)/N3A; co-applied with 50 μM glycine): 100%
pIC50 ± S.E.M. (GluN1(T518L)/N3A; co-applied with 50 μM glycine): 4.0 ± 0.05
Hill coefficient (nH) (GluN1(T518L)/N3A; co-applied with 50 μM glycine): −1.02
IC50 (GluK2; co-applied with 30 μM glutamate, oocytes incubated 5 min in 10 μM concanavalin A): > 300 µM
IC50 (GluN1(F484A/T518L)/N3B; co-applied with 100 μM glycine): 49 µM
pIC50 ± S.E.M. (GluN1(F484A/T518L)/N3B; co-applied with 100 μM glycine): 4.3 ± 0.03
Hill coefficient (nH) (GluN1(F484A/T518L)/N3B; co-applied with 100 μM glycine): −0.77
IC50 (GluN1/N2A [5]): > 300 µM
IC50 (GluN1(F484A)/N3A; co-applied with 100 μM glycine): 93 µM
Maximal inhibition (GluN1(F484A)/N3A; co-applied with 100 μM glycine): 100%
pIC50 ± S.E.M. (GluN1(F484A)/N3A; co-applied with 100 μM glycine): 4.0 ± 0.03
Hill coefficient (nH) (GluN1(F484A)/N3A; co-applied with 100 μM glycine): −1.04

IC50 (GluN1(F484A/T518L)/N3A; [11]): 14 µM
voltage dependence of inhibition (GluN1(F484A/T518L)/N3A): voltage-independent
Hill coefficient (nH) (GluN1(F484A/T518L)/N3A; co-applied with 100 μM glycine): −1.44
IC50 (GluN1(F484A/T518L)/N3A; pIC50 ± S.E.M., co-applied with 100 μM glycine): 15.8 µM
IC50 (GluN1/N2D [6]; [12]): 90 µM
IC50 (GluN1/N2D [6]; pIC50 ± S.E.M., co-applied with 100 μM glutamate and 0.5 μM glycine): 79.4 µM
Hill coefficient (nH) (GluN1/N2D [1]; inhibition): −1.83
IC50 (GluN1/N2B [7]): > 300 µM
inhibition at 30 µM [3, 13]: 70 ± 4%
IC50 (GluN1/N2C [8]): 120 µM
Hill coefficient (nH) (GluN1/N2C [4]; inhibition): −1.77
IC50 (GluN1(T518L)/N3A): 9.8 µM
Maximal inhibition (GluN1(T518L)/N3A; co-applied with 50 μM glycine): 100%
Hill coefficient (nH) (GluN1(T518L)/N3A; co-applied with 50 μM glycine): −1.50
IC50 (GluN1(F484A/T518L)/N3B): 7.4 µM
Hill coefficient (nH) (GluN1(F484A/T518L)/N3B; co-applied with 100 μM glycine): −1.37
Hill coefficient (nH) (GluN1/N2A [5]; inhibition): −1.39
IC50 (GluN1/N2A [9]): 270 µM
IC50 (GluN1(F484A)/N3A): 34 µM
Maximal inhibition (GluN1(F484A)/N3A; co-applied with 100 μM glycine): 100%
Hill coefficient (nH) (GluN1(F484A)/N3A; co-applied with 100 μM glycine): −1.16
SMILES: O=C(O)c1cc(C(=O)c2ccc(Cl)cc2Cl)c[nH]1 [TK30, 4-(2,4-dichlorobenzoyl)-1H-pyrrole-2-carboxylic acid]

IC50 (GluN1(F484A/T518L)/N3A; [11]): > 300 µM
IC50 (GluN1(F484A/T518L)/N3A; [10]): N.E.
IC50 (GluA1): > 300 µM
Ki (GluN1/N2D [6]): > 210 µM
IC50 (GluN1/N2D [6]; [12]): > 300 µM
IC50 (GluN1/N2B [7]): > 300 µM
Ki (GluN1/N2B [7]): > 260 µM
inhibition at 100 µM [3, 13]: 65 ± 4.3%
IC50 (GluN1/N2C [8]): > 300 µM
Ki (GluN1/N2C [8]): > 260 µM
IC50 (GluK2): > 300 µM
IC50 (GluN1(F484A/T518L)/N3B): 79 µM
Ki (GluN1(F484A/T518L)/N3B): 39 µM
voltage dependence of inhibition (GluN1(F484A/T518L)/N3B; current-voltage relationship, inhibition at −60 mV and +30 mV): voltage-independent
Hill coefficient (nH) (GluN1(F484A/T518L)/N3B; co-applied with 100 μM glycine): −1.79
IC50 (GluN1/N2A [9]): > 300 µM
Ki (GluN1/N2A [9]): > 290 µM
SMILES: O=c1[nH]c2nonc2nc1O [TK80, 6-hydroxy-[1,2,5]oxadiazolo[3,4-b]pyrazin-5(4H)-one]
